{"source": "paper PMC5388927", "about": "(Virology, 2008)", "key": {"vaccinia virus": {"system": "vaccinia virus", "settings": "cited from earlier work"}, "WNV VLP": {"system": "WNV VLP", "type": "cell-based, West Nile virus", "settings": "1.5 μM"}, "HIV-1": {"system": "HIV-1", "settings": "cited from earlier work"}, "poliovirus": {"system": "poliovirus", "settings": "cited from earlier work"}, "in vitro": {"assay": "in vitro", "settings": "African green monkey"}, "SARS-CoV": {"system": "SARS-CoV", "settings": "cited from earlier work"}, "[1]": {"system": "VSV (New Jersey serotype)", "type": "cell-based, vesicular stomatitis virus"}, "WEEV (strain Cova 746)": {"system": "WEEV (strain Cova 746)", "type": "cell-based, Western equine encephalitis virus"}, "[2]": {"system": "herpes simplex virus (type 1)", "settings": "cited from earlier work"}, "DENV-1 VLP": {"system": "DENV-1 VLP", "type": "cell-based, dengue virus (DENV-1)", "settings": "1.5 μM"}}, "data": [{"compound": "O[C@H]1[C@H]2c3cc4c(cc3CN3CCC(=C[C@@H]1O)[C@H]23)OCO4", "note": "[Lycorine]", "values": [{"measurement": "antiviral activity", "setting": "vaccinia virus", "result": "inhibit"}, {"measurement": "reduction of luciferase signals", "setting": "WNV VLP", "result": 1400, "unit": "fold"}, {"measurement": "antiviral activity", "setting": "HIV-1", "result": "does not inhibit"}, {"measurement": "antiviral activity", "setting": "poliovirus", "result": "inhibit"}, {"measurement": "suppression of viral translation", "setting": "poliovirus", "result": "~90", "unit": "%"}, {"measurement": "viability at 1.5 µM", "setting": "in vitro", "result": "> 90", "unit": "%"}, {"measurement": "antiviral activity", "setting": "SARS-CoV", "result": "inhibit"}, {"measurement": "suppression of viral titer", "setting": "[1]", "result": "suppressed titers of neither WEEV nor VSV"}, {"measurement": "suppression of viral titer", "setting": "WEEV (strain Cova 746)", "result": "suppressed titers of neither WEEV nor VSV"}, {"measurement": "antiviral activity", "setting": "[2]", "result": "inhibit"}, {"measurement": "reduction of luciferase signals", "setting": "DENV-1 VLP", "result": 1200, "unit": "fold"}]}]}
